Experimental data: patent US9085561B2, “Cyclic urea- or lactam-substituted quinoxaline-type piperidines as ORL-1 modulators” (priority 2012, dated 2015)
Marks after values point to notes of the source that are not given here.

Assays:
[1] = biological target: human opioid receptor-like (ORL-1) (Homo sapiens, UniProt P41146); test: In vitro ORL-1 receptor [35S]GTPγS functional assay; type: biochemical
[2] = biological target: human CYP2D6 (Homo sapiens, UniProt P10635); test: Cytochrome P450 2D6 inhibition (dextromethorphan O-demethylation, pooled human hepatic microsome)
[3] = test system: mechanical hyperalgesia in rats subjected to partial sciatic nerve ligation; test: Seltzer model (partial sciatic nerve ligation) of neuropathic pain, paw pressure assay (PWT); type: in vivo, rat

Sequence of human opioid receptor-like (ORL-1) (P41146 whole entry): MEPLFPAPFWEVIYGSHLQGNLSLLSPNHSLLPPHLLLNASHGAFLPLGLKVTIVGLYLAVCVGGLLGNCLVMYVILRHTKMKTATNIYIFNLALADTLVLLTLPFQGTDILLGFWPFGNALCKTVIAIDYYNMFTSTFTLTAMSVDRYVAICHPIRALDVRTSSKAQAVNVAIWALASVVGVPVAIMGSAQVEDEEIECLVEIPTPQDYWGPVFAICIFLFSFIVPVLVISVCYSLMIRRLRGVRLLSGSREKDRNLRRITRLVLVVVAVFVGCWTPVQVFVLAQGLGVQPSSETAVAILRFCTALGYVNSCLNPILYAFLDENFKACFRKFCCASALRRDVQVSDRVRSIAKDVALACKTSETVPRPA
Sequence of human CYP2D6 (P10635 whole entry): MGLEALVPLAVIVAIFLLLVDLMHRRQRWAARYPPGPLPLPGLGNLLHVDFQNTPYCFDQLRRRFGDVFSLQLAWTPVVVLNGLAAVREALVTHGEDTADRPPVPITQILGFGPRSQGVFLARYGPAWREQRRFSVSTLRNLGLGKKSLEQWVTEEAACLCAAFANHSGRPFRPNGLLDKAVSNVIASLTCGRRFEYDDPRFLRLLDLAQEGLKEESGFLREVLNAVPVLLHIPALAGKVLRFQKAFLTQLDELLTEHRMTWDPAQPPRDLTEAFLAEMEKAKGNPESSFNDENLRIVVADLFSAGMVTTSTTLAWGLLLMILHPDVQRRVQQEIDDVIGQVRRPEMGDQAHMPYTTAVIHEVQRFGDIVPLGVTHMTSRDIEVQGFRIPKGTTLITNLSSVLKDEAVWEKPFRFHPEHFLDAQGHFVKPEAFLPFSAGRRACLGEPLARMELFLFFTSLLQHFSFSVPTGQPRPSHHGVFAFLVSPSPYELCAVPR

## Nc1ccn(-c2nc3ccccc3n([C@H]3C[C@H]4CCC[C@@H](C3)N4[C@H]3C[C@@H]4CCC[C@@H](C4)C3)c2=O)c(=O)n1 [B5a(i), 1-((1R,1′R,3r,3′R,5S,5′S)-[3,9′-bi(9′-azabicyclo[3.3.1]nonan)]-3′-yl)-3-(4-amino-2-oxopyrimidin-1(2H)-yl)quinoxalin-2(1H)-one]
[1]
  EC50: > 20 µM
[2]
  IC50: > 20 µM

## O=C(O)Cn1cccc(-c2nc3ccccc3n([C@H]3C[C@H]4CCC[C@@H](C3)N4C3CCCCCCCCC3)c2=O)c1=O [BB13c(iii), 2-(3-(4-((1R,3r,5S)-9-cyclodecyl-9-azabicyclo[3.3.1]nonan-3-yl)-3-oxo-3,4-dihydroquinoxalin-2-yl)-2-oxopyridin-1(2H)-yl)acetic acid]
[1]
  EC50: 0.101 ± 0.02 µM
[2]
  IC50: > 20 µM

## O=c1cnn(-c2nc3ccccc3n([C@H]3C[C@H]4CC[C@@H](C3)N4[C@H]3C[C@@H]4CCC[C@@H](C4)C3)c2=O)c(=O)[nH]1 [Compound A9a, 2-(4-((1R,3R,5S)-8-((1R,3r,5S)-bicyclo[3.3.1]nonan-3-yl)-8-azabicyclo[3.2.1]octan-3-yl)-3-oxo-3,4-dihydroquinoxalin-2-yl)-1,2,4-triazine-3,5(2H,4H)-dione]
[1]
  EC50: 0.378 ± 0.055 µM
[2]
  IC50: > 20 µM

## O=c1cnn(-c2nc3ccccc3n([C@H]3C[C@H]4CCC[C@@H](C3)N4[C@H]3C[C@@H]4CCC[C@@H](C4)C3)c2=O)c(=O)[nH]1 [Compound B9a]
[3]; 1, 3, or 10 mg/kg, all measured time-points on the first day of administration
  reversal compared with the pregabalin control: more effective reversal than the pregabalin control
[3]; once daily administration (3 or 10 mg/kg) for seven days, rats with partial sciatic nerve ligation
  effects against mechanical hyperalgesia: statistically significant effects
[3]; rat Seltzer model, oral 1 mg/kg, 1 h after administration (day 1)
  % Reversal [mean]: 27.0* %
[3]; rat Seltzer model, oral 1 mg/kg, 3 h after administration (day 1), 1 mg/kg
  % Reversal [mean]: 37.0%
[3]; rat Seltzer model, oral 1 mg/kg, 5 h after administration (day 1)
  % Reversal [mean]: 27.0* %
[3]; rat Seltzer model, oral 1 mg/kg, pre-administration
  % Reversal [mean]: 0%
[3]; rat Seltzer model, oral 3 mg/kg once daily, 1 h after administration (day 4)
  % Reversal [mean]: 40.8** %
[3]; rat Seltzer model, oral 3 mg/kg once daily, 1 h after administration (day 7)
  % Reversal [mean]: 47.7** %
[3]; rat Seltzer model, oral 3 mg/kg once daily, 3 h after administration (day 4), 3 mg/kg
  % Reversal [mean]: 46.2%
[3]; rat Seltzer model, oral 3 mg/kg once daily, 3 h after administration (day 7), 3 mg/kg
  % Reversal [mean]: 55.2%
[3]; rat Seltzer model, oral 3 mg/kg once daily, 5 h after administration (day 4)
  % Reversal [mean]: 36.9** %
[3]; rat Seltzer model, oral 3 mg/kg once daily, 5 h after administration (day 7)
  % Reversal [mean]: 42.2** %
[3]; rat Seltzer model, oral 3 mg/kg, 1 h after administration (day 1)
  % Reversal [mean]: 33.1** %
[3]; rat Seltzer model, oral 3 mg/kg, 3 h after administration (day 1), 3 mg/kg
  % Reversal [mean]: 46.2%
[3]; rat Seltzer model, oral 3 mg/kg, 5 h after administration (day 1)
  % Reversal [mean]: 34.6** %
[3]; rat Seltzer model, oral 3 mg/kg, pre-administration
  % Reversal [mean]: 0%
[3]; rat Seltzer model, oral 10 mg/kg once daily, 1 h after administration (day 4)
  % Reversal [mean]: 53.8** %
[3]; rat Seltzer model, oral 10 mg/kg once daily, 1 h after administration (day 7)
  % Reversal [mean]: 50.0** %
[3]; rat Seltzer model, oral 10 mg/kg once daily, 3 h after administration (day 4), 10 mg/kg
  % Reversal [mean]: 64.2%
[3]; rat Seltzer model, oral 10 mg/kg once daily, 3 h after administration (day 7), 10 mg/kg
  % Reversal [mean]: 63.5%
[3]; rat Seltzer model, oral 10 mg/kg once daily, 5 h after administration (day 4)
  % Reversal [mean]: 47.7** %
[3]; rat Seltzer model, oral 10 mg/kg once daily, 5 h after administration (day 7)
  % Reversal [mean]: 42.2** %
[3]; rat Seltzer model, oral 10 mg/kg, 1 h after administration (day 1)
  % Reversal [mean]: 49.2** %
[3]; rat Seltzer model, oral 10 mg/kg, 3 h after administration (day 1), 10 mg/kg
  % Reversal [mean]: 61.5%
[3]; rat Seltzer model, oral 10 mg/kg, 5 h after administration (day 1)
  % Reversal [mean]: 46.9** %
[3]; rat Seltzer model, oral 10 mg/kg, pre-administration
  % Reversal [mean]: 0%
[3]; repeated administration for 7 days, rat Seltzer model
  tolerance development with repeated administration: lack of tolerance development
[2]
  IC50: > 20 µM

## Cc1nn(-c2nc3ccccc3n([C@H]3C[C@H]4CCC[C@@H](C3)N4[C@H]3C[C@@H]4CCC[C@@H](C4)C3)c2=O)c(=O)[nH]c1=O [Compound B10a, 2-(4-((1R,1′R,3r,3′R,5S,5′S)-[3,9′-bi(9′-azabicyclo[3.3.1]nonan)]-3′-yl)-3-oxo-3,4-dihydroquinoxalin-2-yl)-6-methyl-1,2,4-triazine-3,5(2H,4H)-dione]
[1]
  EC50: > 20 µM
[2]
  IC50: > 20 µM

## O=c1ccn(-c2nc3ccccc3n([C@H]3C[C@H]4CCC[C@@H](C3)N4[C@H]3C[C@@H]4CCC[C@@H](C4)C3)c2=O)c(=O)[nH]1 [Compound B13a, 1-(4-((1R,1′R,3r,3′R,5S,5′S)-[3,9′-bi(9′-azabicyclo[3.3.1]nonan)]-3′-yl)-3-oxo-3,4-dihydroquinoxalin-2-yl)pyrimidine-2,4(1H,3H)-dione]
[1]
  EC50: > 20 µM
[2]
  IC50: > 20 µM

## O=C1CN(c2nc3ccccc3n([C@H]3C[C@H]4CCC[C@@H](C3)N4[C@H]3C[C@@H]4CCC[C@@H](C4)C3)c2=O)C(=O)N1 [Compound B17a, 1-(4-((1R,1′R,3r,3′R,5S,5′S)-[3,9′-bi(9′-azabicyclo[3.3.1]nonan)]-3′-yl)-3-oxo-3,4-dihydroquinoxalin-2-yl)imidazolidine-2,4-dione]
[1]
  EC50: > 20 µM
[2]
  IC50: > 20 µM

## CC1(C)C(=O)NC(=O)N1c1nc2ccccc2n([C@H]2C[C@H]3CCC[C@@H](C2)N3[C@H]2C[C@@H]3CCC[C@@H](C3)C2)c1=O [Compound B19a, 1-(4-((1R,1′R,3r,3′R,5S,5′S)-[3,9′-bi(9′-azabicyclo[3.3.1]nonan)]-3′-yl)-3-oxo-3,4-dihydroquinoxalin-2-yl)-5,5-dimethylimidazolidine-2,4-dione]
[1]
  EC50: > 20 µM
[2]
  IC50: > 20 µM

## O=C1CNC(=O)N1c1nc2ccccc2n([C@H]2C[C@H]3CCC[C@@H](C2)N3[C@H]2C[C@@H]3CCC[C@@H](C3)C2)c1=O [Compound B20a, 3-(4-((1R,1′R,3r,3′R,5S,5′S)-[3,9′-bi(9′-azabicyclo[3.3.1]nonan)]-3′-yl)-3-oxo-3,4-dihydroquinoxalin-2-yl)imidazolidine-2,4-dione]
[1]
  EC50: > 20 µM
[2]
  IC50: > 20 µM

## O=c1[nH]cnn1-c1nc2ccccc2n([C@H]2C[C@H]3CCC[C@@H](C2)N3[C@H]2C[C@@H]3CCC[C@@H](C3)C2)c1=O [Compound B23a, 1-((1R,3r,3′R,5S,5′S)-[3,9′-bi(9′-azabicyclo[3.3.1]nonan)]-3′-yl)-3-(5-oxo-4,5-dihydro-1H-1,2,4-triazol-1-yl)quinoxalin-2(1H)-one]
[1]
  EC50: > 20 µM
[2]
  IC50: 17.8 µM

## O=c1cnn(-c2nc3ccccc3n([C@H]3C[C@H]4CCC[C@@H](C3)N4C3CCCCCCC3)c2=O)c(=O)[nH]1 [Compound H9c, 2-(4-((1R,3r,5S)-9-cyclooctyl-9-azabicyclo[3.3.1]nonan-3-yl)-3-oxo-3,4-dihydroquinoxalin-2-yl)-1,2,4-triazine-3,5(2H,4H)-dione]
[1]
  EC50: 0.376 ± 0.016 µM
[2]
  IC50: > 20 µM

## O=c1cnn(-c2nc3ccccc3n([C@H]3C[C@H]4CCC[C@@H](C3)N4[C@@H]3C[C@@H]4CCCC[C@@H](C4)C3)c2=O)c(=O)[nH]1 [Compound O9b, 2-(4-((1R,3R,5S)-9-((1R,6S,8s)-bicyclo[4.3.1]decan-8-yl)-9-azabicyclo[3.3.1]nonan-3-yl)-3-oxo-3,4-dihydroquinoxalin-2-yl)-1,2,4-triazine-3,5(2H,4H)-dione]
[1]
  EC50: > 20 µM
[2]
  IC50: > 20 µM

## O=c1ccn(-c2nc3ccccc3n([C@H]3C[C@H]4CCC[C@@H](C3)N4[C@@H]3C[C@@H]4CCCC[C@@H](C4)C3)c2=O)c(=O)[nH]1 [Compound O13b, 1-(4-((1R,3R,5S)-9-((1R,6S,8s)-bicyclo[4.3.1]decan-8-yl)-9-azabicyclo[3.3.1]nonan-3-yl)-3-oxo-3,4-dihydroquinoxalin-2-yl)pyrimidine-2,4(1H,3H)-dione]
[1]
  EC50: > 20 µM
[2]
  IC50: > 20 µM

## CC1(C)C(=O)NC(=O)N1c1nc2ccccc2n([C@H]2C[C@H]3CCC[C@@H](C2)N3[C@@H]2C[C@@H]3CCCC[C@@H](C3)C2)c1=O [Compound O19a, 1-(4-((1R,3R,5S)-9-((1R,6S,8s)-bicyclo[4.3.1]decan-8-yl)-9-azabicyclo[3.3.1]nonan-3-yl)-3-oxo-3,4-dihydroquinoxalin-2-yl)-5,5-dimethylimidazolidine-2,4-dione]
[1]
  EC50: > 20 µM
[2]
  IC50: > 20 µM

## Cc1nn(-c2nc3ccccc3n([C@H]3C[C@H]4CCC[C@@H](C3)N4[C@H]3C[C@@H]4CCC[C@@H](C4)C3)c2=O)c(=S)[nH]c1=O [Compound U001, 1-((1R,1′R,3r,3′R,5S,5′S)-[3,9′-bi(9′-azabicyclo[3.3.1]nonan)]-3′-yl)-3-(6-methyl-5-oxo-3-thioxo-4,5-dihydro-1,2,4-triazin-2(3H)-yl)quinoxalin-2(1H)-one]
[1]
  EC50: > 20 µM
[2]
  IC50: > 20 µM

## O=c1ncc(-c2nc3ccccc3n([C@H]3C[C@H]4CCC[C@@H](C3)N4[C@H]3C[C@@H]4CCC[C@@H](C4)C3)c2=O)c[nH]1 [Compound U048, 1-((1R,1′R,3r,3′R,5S,5′S)-[3,9′-bi(9′-azabicyclo[3.3.1]nonan)]-3′-yl)-3-(2-oxo-1,2-dihydropyrimidin-5-yl)quinoxalin-2(1H)-one]
[1]
  EC50: > 20 µM
[2]
  IC50: > 20 µM

## O=C(O)CCn1cccc(-c2nc3ccccc3n([C@H]3C[C@H]4CCC[C@@H](C3)N4[C@H]3C[C@@H]4CCC[C@@H](C4)C3)c2=O)c1=O [Compound U057, 3-(3-(4-((1R,1′R,3r,3′R,5S,5′S)-[3,9′-bi(9′-azabicyclo[3.3.1]nonan)]-3′-yl)-3-oxo-3,4-dihydroquinoxalin-2-yl)-2-oxopyridin-1(2H)-yl)propanoic acid]
[1]
  EC50: > 20 µM
[2]
  IC50: > 20 µM

## Nc1ccn(-c2nc3ccccc3n([C@H]3C[C@H]4CCC[C@@H](C3)N4[C@@H]3C[C@@H]4CCCC[C@@H](C4)C3)c2=O)c(=O)n1 [Compound U068, 3-(4-amino-2-oxopyrimidin-1(2H)-yl)-1-((1R,3R,5S)-9-((1R,6S,8s)-bicyclo[4.3.1]decan-8-yl)-9-azabicyclo[3.3.1]nonan-3-yl)quinoxalin-2(1H)-one]
[1]
  EC50: > 20 µM
[2]
  IC50: > 20 µM
